This assay has as its system genotype D HBV. Put plainly: HBV-DNA Antiviral Assay Using HepG2.117 Cells. In kind it is cell-based. As to conditions: Hepatitis B virus, HepG2.117, 96 h, intracellular HBV DNA by qPCR, day 4. As for the experimental part:
The following assay procedure describes the HBV antiviral assay, using HepG2.117 cells, which carry a stably integrated genotype D HBV genome under the control of a Tet-off promoter, and intracellular HBV DNA quantification as endpoint. Cell viability is assessed in parallel by measuring the intracellular ATP content using ATPlite (Perkin Elmer).
On day 0, HepG2.117 cells (which are maintained in routine cell culture with doxycycline present in the medium at a final concentration of 1 μg/mL) were seeded in 96-well plates (white with clear bottom) at a density of 2.0×10^4 cells/well (0.1 mL/well) in medium without doxycycline to induce pgRNA transcription and subsequent formation of HBV particles. The cells were incubated at 37° C. and 5% CO2.
On day 1, medium was removed from each well, the test articles were diluted in culture medium without doxcycyline and 100 μL was added to cell culture wells (9 concentrations, 4-fold dilution). For each plate, 6 untreated (merely DMSO) wells were included. The final concentration of DMSO in the culture medium was 2%. Each plate was prepared in duplicate (one for HBV DNA extraction, one for ATPlite measurement). The cells were incubated at 37° C. and 5% CO2 for 3 days.
On day 4, cell viability was assessed using ATPlite and cell lysates were prepared for HBV DNA extraction and subsequent quantification by qPCR.
Medium was removed from each well and 100 μL of 0.33% NP-40 in H2O was added to each well. Plates were sealed, incubated at 4° C. for 5 mins, vortexed extensively and centrifuged briefly. Next, 35 μL of lysate was added to 65 μL QuickExtract DNA Extraction Solution (Epicentre) in a PCR plate for each well. PCR plate was incubated at 65° C. for 6 mins, 98° C. for 2 mins and finally cooled to 4° C. HBV DNA was then quantified by qPCR with HBV-specific primers and probes as specified in Table 4 using the Bio-Rad SSOAdvanced Universal Probes Supermix on a CFX96 machine (Bio-Rad). The PCR cycle program consisted of 95° C. for 3 mins, followed by 40 cycles at 95° C. for 10 sec and 60° C. for 30 sec.
A DNA standard was prepared by dilution of an IDT gBlock corresponding to the amplicon with concentrations ranging from 10^2 to 10^8 copies/input (i.e. per 4 μL) and used to generate a standard curve by plotting Cq values vs. HBV DNA standard concentration. The quantity of HBV DNA in each sample was determined by interpolating from the standard curve.
Cell viability was calculated as follows: % Cell viability=(luminescence value of test sample)/(average luminescence value of 2% DMSO control)×100%. HBV DNA inhibition was calculated as follows: 100−(HBV DNA copy number of test sample)/(average HBV DNA copy number of 2% DMSO control)×100%. No normalization to entecavir was required due to the excellent dynamic window of this assay. The CC50, EC50 and EC90 values were determined by dose-response curves fitted by GraphPad Prism using “log (agonist) vs. response—Variable slope”.

Each structure is given as a SMILES string. pEC50: −log10 of the molar value.

Among the data in patent US11033556B2, “Bicyclic sulfonamides” (priority 2019, dated 2021) are EC50 values, retold here.

`C=C[C@H]1CCc2c(cn(C)c2C(=O)Nc2ccc(F)c(C#N)c2)S(=O)(=O)N1` [Compound 8] had a pEC50 of 8.00 to 9.00.
Take `C=C[C@@]1(CO)CCc2c(cn(C)c2C(=O)Nc2ccc(F)c(C(F)(F)F)c2)S(=O)(=O)N1` [Compound 9A]: the pEC50 was 7.00 to 8.00.
In the case of `C=C[C@]1(CO)CCc2c(cn(C)c2C(=O)Nc2ccc(F)c(C(F)(F)F)c2)S(=O)(=O)N1` [Compound 9B], the pEC50 was 7.00 to 8.00.
To `C=C[C@@]1(CO)CCc2c(cn(C)c2C(=O)Nc2ccc(F)c(C#N)c2)S(=O)(=O)N1` [Compound 10A] belongs 7.00 to 8.00; to `C=C[C@]1(CO)CCc2c(cn(C)c2C(=O)Nc2ccc(F)c(C#N)c2)S(=O)(=O)N1` [Compound 10B], 7.00 to 8.00.
`C=C[C@](C)(O)[C@H]1CCc2c(cn(C)c2C(=O)Nc2ccc(F)c(C#N)c2)S(=O)(=O)N1` [Compound 11A] showed a pEC50 of 8.00 to 9.00.
To `C=C[C@@](C)(O)[C@H]1CCc2c(cn(C)c2C(=O)Nc2ccc(F)c(C#N)c2)S(=O)(=O)N1` [Compound 11B] belongs 8.00 to 9.00; to `C#C[C@](C)(O)[C@H]1CCc2c(cn(C)c2C(=O)Nc2ccc(F)c(C#N)c2)S(=O)(=O)N1` [Compound 12A], 7.00 to 8.00; to `C#C[C@@](C)(O)[C@H]1CCc2c(cn(C)c2C(=O)Nc2ccc(F)c(C#N)c2)S(=O)(=O)N1` [Compound 12B], 7.00 to 8.00.
Regarding `Cn1cc2c(c1C(=O)Nc1ccc(F)c(C#N)c1)OC[C@H](CC=C(F)F)NS2(=O)=O` [Compound 13], the pEC50 is 8.00 to 9.00.
`C=C[C@H](O)[C@H]1COc2c(cn(C)c2C(=O)Nc2ccc(F)c(C#N)c2)S(=O)(=O)N1` [Compound 14A] gave a pEC50 of 8.00 to 9.00.
To `C=C[C@@H](O)[C@H]1COc2c(cn(C)c2C(=O)Nc2ccc(F)c(C#N)c2)S(=O)(=O)N1` [Compound 14B] belongs 8.00 to 9.00.
The compound `C=C[C@]1(C)COc2c(cn(C)c2C(=O)Nc2ccc(F)c(C#N)c2)S(=O)(=O)N1` [Compound 15A] gave a pEC50 of 8.00 to 9.00.
`C=C[C@@]1(C)COc2c(cn(C)c2C(=O)Nc2ccc(F)c(C#N)c2)S(=O)(=O)N1` [Compound 15B] showed a negative logarithm of the EC50 (pEC50) of 8.00 to 9.00.
To `C=CC[C@]1(C)COc2c(cn(C)c2C(=O)Nc2ccc(F)c(C#N)c2)S(=O)(=O)N1` [Compound 16A] belongs 8.00 to 9.00.
`C=CC[C@@]1(C)COc2c(cn(C)c2C(=O)Nc2ccc(F)c(C#N)c2)S(=O)(=O)N1` [Compound 16B] had a pEC50 of 8.00 to 9.00.
In turn, `C=CC[C@H](O)[C@H]1COc2c(cn(C)c2C(=O)Nc2ccc(F)c(C#N)c2)S(=O)(=O)N1` [Compound 17A] gave a pEC50 of 8.00 to 9.00.
To `C=CC[C@@H](O)[C@H]1COc2c(cn(C)c2C(=O)Nc2ccc(F)c(C#N)c2)S(=O)(=O)N1` [Compound 17B] belongs 8.00 to 9.00; to `C#C[C@H](O)[C@H]1COc2c(cn(C)c2C(=O)Nc2ccc(F)c(C#N)c2)S(=O)(=O)N1` [Compound 18], 8.00 to 9.00; to `CC#C[C@H](O)[C@H]1COc2c(cn(C)c2C(=O)Nc2ccc(F)c(C#N)c2)S(=O)(=O)N1` [Compound 19A], 8.00 to 9.00.
The figure for `CC#C[C@@H](O)[C@H]1COc2c(cn(C)c2C(=O)Nc2ccc(F)c(C#N)c2)S(=O)(=O)N1` [Compound 19B] is 8.00 to 9.00; for `C=C[C@@](O)([C@H]1COc2c(cn(C)c2C(=O)Nc2ccc(F)c(C(F)(F)F)c2)S(=O)(=O)N1)C(F)(F)F` [Compound 20] it is 8.00 to 9.00.
`C=C[C@](O)([C@@H]1COc2c(cn(C)c2C(=O)Nc2ccc(F)c(C#N)c2)S(=O)(=O)N1)C(F)(F)F` [Compound 21] showed a pEC50 of 7.00 to 8.00.
To `CC#C[C@H](O)[C@H]1COc2c(cn(C)c2C(=O)Nc2ccc(F)c(C(F)(F)F)c2)S(=O)(=O)N1` [Compound 22A] belongs 7.00 to 8.00; to `CC#C[C@@H](O)[C@H]1COc2c(cn(C)c2C(=O)Nc2ccc(F)c(C(F)(F)F)c2)S(=O)(=O)N1` [Compound 22B], 8.00 to 9.00.
As to `C=C[C@@]1(C)COc2c(cn(C)c2C(=O)Nc2ccc(F)c(C(F)(F)F)c2)S(=O)(=O)N1` [Compound 23A], the pEC50 is 8.00 to 9.00.
`C=C[C@]1(C)COc2c(cn(C)c2C(=O)Nc2ccc(F)c(C(F)(F)F)c2)S(=O)(=O)N1` [Compound 23B] showed a pEC50 of 8.00 to 9.00.
To `C=C[C@H]1COc2c(cn(C)c2C(=O)Nc2ccc(F)c(C(F)(F)F)c2)S(=O)(=O)N1` [Compound 24] belongs 8.00 to 9.00.
To `C=CC[C@@H](O)[C@@H]1COc2c(cn(C)c2C(=O)Nc2ccc(F)c(C#N)c2)S(=O)(=O)N1` [Compound 25A] belongs 7.00 to 8.00.
The figure for `C=CC[C@H](O)[C@@H]1COc2c(cn(C)c2C(=O)Nc2ccc(F)c(C#N)c2)S(=O)(=O)N1` [Compound 25B] is 7.00 to 8.00.
With `C=C[C@](O)([C@@H]1COc2c(cn(C)c2C(=O)Nc2ccc(F)c(C(F)(F)F)c2)S(=O)(=O)N1)C(F)(F)F` [Compound 26], the pEC50 is 7.00 to 8.00.
To `C=C[C@@H](C)[C@H]1COc2c(cn(C)c2C(=O)Nc2ccc(F)c(C#N)c2)S(=O)(=O)N1` [Compound 27A] belongs 7.00 to 8.00; to `C=C[C@H](C)[C@@H]1COc2c(cn(C)c2C(=O)Nc2ccc(F)c(C#N)c2)S(=O)(=O)N1` [Compound 27B], 8.00 to 9.00; to `C=C[C@H](C)[C@H]1COc2c(cn(C)c2C(=O)Nc2ccc(F)c(C#N)c2)S(=O)(=O)N1` [Compound 27C], 7.00 to 8.00.
On to `C=C[C@@H](C)[C@@H]1COc2c(cn(C)c2C(=O)Nc2ccc(F)c(C#N)c2)S(=O)(=O)N1` [Compound 27D], for which the negative logarithm of the EC50 (pEC50) is over 9.00.
The figure for `C=C[C@@](C)(O)[C@H]1COc2c(cn(C)c2C(=O)Nc2ccc(F)c(C#N)c2)S(=O)(=O)N1` [Compound 28A] is 8.00 to 9.00; for `C=C[C@](C)(O)[C@H]1COc2c(cn(C)c2C(=O)Nc2ccc(F)c(C#N)c2)S(=O)(=O)N1` [Compound 28B] it is 8.00 to 9.00.
`C=C[C@@](C)(O)[C@H]1COc2c(cn(C)c2C(=O)Nc2ccc(F)c(C(F)(F)F)c2)S(=O)(=O)N1` [Compound 29A]: the pEC50 was 7.00 to 8.00.
Consider `C=C[C@](C)(O)[C@H]1COc2c(cn(C)c2C(=O)Nc2ccc(F)c(C(F)(F)F)c2)S(=O)(=O)N1` [Compound 29B], for which the pEC50 is 8.00 to 9.00.
`C=C[C@@]1(CO)COc2c(cn(C)c2C(=O)Nc2ccc(F)c(C#N)c2)S(=O)(=O)N1` [Compound 30A] gave a pEC50 of 8.00 to 9.00.
In turn, `C=C[C@]1(CO)COc2c(cn(C)c2C(=O)Nc2ccc(F)c(C#N)c2)S(=O)(=O)N1` [Compound 30B] showed a pEC50 of 7.00 to 8.00.
The figure for `C=C[C@@]1(CO)COc2c(cn(C)c2C(=O)Nc2ccc(F)c(C(F)(F)F)c2)S(=O)(=O)N1` [Compound 31A] is 8.00 to 9.00; for `C=C[C@]1(CO)COc2c(cn(C)c2C(=O)Nc2ccc(F)c(C(F)(F)F)c2)S(=O)(=O)N1` [Compound 31B] it is 8.00 to 9.00; for `C=C(C)[C@H]1COc2c(cn(C)c2C(=O)Nc2ccc(F)c(C#N)c2)S(=O)(=O)N1` [Compound 32] it is 8.00 to 9.00.
As to `C=C(C)[C@H]1COc2c(cn(C)c2C(=O)Nc2ccc(F)c(C(F)(F)F)c2)S(=O)(=O)N1` [Compound 33], the pEC50 was 8.00 to 9.00.
To `C=CC(O)([C@H]1COc2c(cn(C)c2C(=O)Nc2ccc(F)c(C#N)c2)S(=O)(=O)N1)C(F)(F)F` (some centres unmarked) [Compound 34] belongs over 9.00; to `C#C[C@](C)(O)[C@H]1COc2c(cn(C)c2C(=O)Nc2ccc(F)c(C#N)c2)S(=O)(=O)N1` [Compound 35A], 8.00 to 9.00.
